Columns and labels:
MCF-7 cells = assay: [3H]-thymidine incorporation, E2 stimulated MCF-7 cell proliferation; format: cell-based, human; settings: FIG. 19
Procedure: Experimental Design: Plate between 25,000 and 50,000 cells per well onto 24-well plates. Cells are plated in phenol red-free media. After attachment, cells are stimulated with either antiestrogen alone or estrogen and antiestrogen. Induction time ranges from 12-48 hours, depending on experiment.
Add 4λ (4 μCi) thymidine, [methyl-^3H]-to each well.
Incubate at 37° C. for 2-4 hours.
Aspirate media and wash twice with ice cold PBS.
Wash once with ice cold 10% TCA (trichloroacetic acid).
Add 2 mL 10% TCA to each well.
Incubate at 4° C. for 1-2 hours.
Transfer each well to scintillation vial containing 2 mL scintillation fluid.

ER-TAF1 = assay: C3 promoter-luciferase cotransfection assay in HepG2 cells, ER-TAF1 (AF-2 disrupted); format: cell-based, human; settings: for agonist activity on ER-TAF1: ER-TAF1, compound alone, FIG. 1B
Text: (§1) FIGS. 1A and 1B. […] The human C3 promoter (−1807 to +58) fused to the firefly luciferase reporter gene was transfected along with an expression plasmid containing (FIG. 1A) the wild-type human estrogen receptor (ERwt), or (FIG. 1B) a mutated ER in which the AF-2 function had been disrupted (ER-TAFl) into HepG2 cells and tested for transcriptional activation in the presence of increasing concentrations of ER-modulator as indicated. Transfections were normalized for efficiency and cell number by cotransfecting an expression plasmid containing β-galactosidase. The normalized response was obtained by dividing light units by the activity of β-galactosidase as measured in an enzymatic assay. Triplicate transfections were performed. The data shown are representative of multiple experiments performed under similar conditions.
(§2) FIGS. 2A-2C. […] FIG. 2A. […] FIG. 2B. […] FIG. 2C. […] Transfections were normalized for efficiency and cell number by cotransfecting an expression plasmid containing β-galactosidase. The normalized response was obtained by dividing light units by the activity of β-galactosidase as measured in an enzymatic assay. Representative assays are shown in which triplicate transfections were performed. Error bars represent the standard error of the mean (SEM).
(§3) HepG2 cells were maintained in Modified Eagles Medium (MEM) (Life Technologies, Grand Island, N.Y.) plus 10% Fetal Calf Serum (FCS) (Life Technologies). Cells were plated in 24 well plates (coated with gelatin) 24 hours prior to transfection. DNA was introduced into the cells using Lipofectin (Life Technologies). Briefly, triplicate transfections were performed using 3 μg of total DNA. For standard transfections, 500 ng of pCMV-β-Gal (normalization vector), 1500 ng reporter (variable) and 1000 ng receptor (pRST7-hER (Dana et al, Mol. Endocrinol. 8:1193-1207 (1994)) were used for each triplicate. Incubation of the cells with Lipofectin proceeded for 3 hrs, at which time media was removed, cells were washed with PBS and then induced with the appropriate hormone diluted in phenol red-free media containing 10% charcoal stripped CS (Cyclone Inc.). Incubation with hormone continued for 48 hrs, after which cells were lysed and assayed for luciferase and β-galactosidase activity as previously described (Norris et al, JBC 270:22777-22782 (1995)).
(§4) A series of in vitro screens have been developed that permit the classification of ER-modulators into four mechanistically distinct groups (Tzukerman et al, Mol. Endocrinol. 8:21-30 (1994)). […] Using these assays, it has been possible to derive “fingerprints” of known ER-modulators (McDonnell et al, Mol. Endocrinol. 9:659-669 (1995)).
(§5) Subsequently, the transfected cells were assayed for luceriferase and β-galactosidase activity. Each data point in this experiment represents the average of triplicate determinations of the transcriptional activity under given experimental conditions.

ER-VP16 = ER-VP16 reporter of nuclear localization and DNA binding status of ER; format: cell-based
Text: This was addressed using a modified ER (ER-VP16) to report on the nuclear localization and the DNA binding status of ER within a cell following ligand binding. This modified protein behaves exactly like ER in all respects except it activates transcription upon interaction with an estrogen response element (ERE) independent of the nature of the bound ligand (McDonnell et al, Mol. Endocrinol. 9:659-669 (1995)).

ERβ = ERβ (Homo sapiens, UniProt Q92731); settings: HeLa cells, estradiol (10^−9), FIG. 14B
Sequence of ERβ (Q92731 whole entry): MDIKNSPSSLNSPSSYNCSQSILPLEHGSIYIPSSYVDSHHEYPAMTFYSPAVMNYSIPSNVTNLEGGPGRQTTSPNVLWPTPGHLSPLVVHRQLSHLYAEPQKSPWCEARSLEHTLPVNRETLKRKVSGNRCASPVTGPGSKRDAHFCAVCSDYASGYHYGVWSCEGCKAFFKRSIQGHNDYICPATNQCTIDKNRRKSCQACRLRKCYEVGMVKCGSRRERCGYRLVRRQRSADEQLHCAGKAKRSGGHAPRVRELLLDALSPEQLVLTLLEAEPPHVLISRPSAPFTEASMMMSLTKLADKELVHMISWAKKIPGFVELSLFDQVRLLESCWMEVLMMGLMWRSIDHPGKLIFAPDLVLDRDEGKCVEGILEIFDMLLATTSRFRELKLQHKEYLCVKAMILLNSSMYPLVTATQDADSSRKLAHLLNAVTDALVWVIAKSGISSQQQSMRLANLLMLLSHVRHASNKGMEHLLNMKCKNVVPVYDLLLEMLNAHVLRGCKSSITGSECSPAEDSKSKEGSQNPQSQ
Text: (§6) HeLa cells were transfected with either an ERα expression vector (see FIG. 14A) or an ERβ expression vector (see FIG. 14B) together with an estrogen responsive ERE-TK-luceriferase reporter construct.

[1] = biological target: T1, wild-type human estrogen receptor (ERwt) (Homo sapiens, UniProt P03372); assay: C3 promoter-luciferase cotransfection assay in HepG2 cells, ERwt; format: cell-based
T1 construct: expressed in transfected cells; host or cells: HepG2
T1 sequence (P03372 1-595): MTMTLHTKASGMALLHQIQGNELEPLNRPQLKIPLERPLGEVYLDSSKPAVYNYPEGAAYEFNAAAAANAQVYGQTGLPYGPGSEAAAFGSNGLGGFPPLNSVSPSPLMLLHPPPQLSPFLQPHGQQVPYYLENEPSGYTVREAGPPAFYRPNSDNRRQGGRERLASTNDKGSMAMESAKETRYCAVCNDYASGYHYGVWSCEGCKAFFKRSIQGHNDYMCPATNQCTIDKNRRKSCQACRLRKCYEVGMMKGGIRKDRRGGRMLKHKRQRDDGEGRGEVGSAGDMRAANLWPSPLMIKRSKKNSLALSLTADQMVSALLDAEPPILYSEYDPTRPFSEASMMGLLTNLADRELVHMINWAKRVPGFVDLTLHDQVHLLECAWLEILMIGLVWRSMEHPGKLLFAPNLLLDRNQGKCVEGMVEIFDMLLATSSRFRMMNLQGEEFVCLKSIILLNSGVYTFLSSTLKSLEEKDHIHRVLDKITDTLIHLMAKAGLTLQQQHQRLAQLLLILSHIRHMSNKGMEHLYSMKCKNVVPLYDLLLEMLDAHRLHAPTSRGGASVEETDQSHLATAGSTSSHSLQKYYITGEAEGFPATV
Text: as §1, §2, §3, §4, §5

ERα = biological target: T2, ERα (Homo sapiens, UniProt P03372); format: cell-based; settings: HeLa cells, estradiol (10^−9), FIG. 14A
T2 construct: expressed in transfected cells; host or cells: HeLa
Text: as §6

human ER = biological target: T3, human ER (Homo sapiens, UniProt P03372); format: cell-based; settings: MCF-7 cells, in the presence of 17-β-estradiol, 48 h, FIG. 12
T3 construct: expressed in transfected cells; host or cells: MCF-7

[2] = Bone mineral density in ovariectomized rats (DEXA, pQCT); format: in vivo, rat; settings: 90-day old OVX rats, oral, 28 days, FIG. 3A
Procedure: FIGS. 3A and 3B. […] FIG. 3A. […] FIG. 3B.
Animal preparation. […] At sacrifice, animals were euthanized with C02, body weights were recorded and the uteri were removed and weighed. Uterus, vagina and mammary tissue were fixed in 10% neutral buffered formalin. Samples for histologic processing were taken from the mid-point of each uterine horn. Tissue samples were embedded in paraffin, stained with haematoxylin and eosin and evaluated microscopically. Lumbar vertebrae and both left and right tibiae were excised. Total blood cholesterol was measured (Roche Biomedical Laboratories).

[3] = Uterotrophic assay in immature rats; settings: 21 day old immature rats, oral
Procedure: FIG. 5. […] The data shown represent the mean value (±SEM).
Twenty-one day old female Sprague-Dawley rats (30-35 gms) were obtained from Harlan or Taconic Laboratories. Animals were sorted randomly into treatment groups of five, and average weights were recorded for each treatment group. Weights were recorded on each treatment day. […] On day of dosing, drug was diluted in 0.5% methyl cellulose, viscosity of 2% at 25° C.:400 centipoises (Sigma, St. Louis, Mo.)). Oral dosing by gavage was based on a total volume of 10 ml/kg body weight. […] Subcutaneous dosing was based on a total of 2 ml/kg body weight. […] On day 4, animals were sacrificed by C02 asphyxiation, body weights were obtained and uteri were removed, blotted and weighed. Data were expressed as uterine weight/body weight.
In this assay, uterine wet weight was used as a measure of ER-agonist activity in this tissue (FIG. 5).

MCF-7/LCC2 = assay: LCC2 study, MCF-7/LCC2 tumors in nude mice; format: in vivo, mouse; settings: after 8 weeks, 1.0 mg every three days, FIG. 11
Procedure: This experiment was conducted to determine the ability of GW5638 to retard the growth of this cell line in nude mice relative to control or tamoxifen treated tumors.
40 OVX mice were prepared to accept cells and grouped as follows:
Control animals received nothing and groups 3 and 4 received 0.1 ml injections in corn oil every three days. Tumors were measured Q3 days with calipers, and the area calculated as follows: Area=½×w/2×π.

In the case of `CC/C(=C(\c1ccc(O)cc1)c1ccc(/C=C/C(=O)O)cc1)c1ccccc1` [GW7604], the “E2 stimulated MCF-7 cell proliferation” value (MCF-7 cells) is reported as “Inhibits E2 Stimulated MCF-7 Cell Proliferation”, the “inhibition of the partial agonist activity of raloxifene on ER-TAF1” value (ER-TAF1; ER-TAF1) is reported as “inhibited” and the “inhibition of estradiol- and tamoxifen-induced ER-TAF1 transcriptional activity” value (ER-TAF1; ER-TAF1, FIG. 2B) is reported as “capable of inhibiting”. For the same compound, the “agonist activity on ER-TAF1” value (ER-TAF1) was “functionally inactive”, the “agonist activity on ER mutants” value (ER-TAF1; any ER-mutant examined, FIG. 13) was “does not exhibit agonist activity” and the “interaction of ER with target DNA” value (ER-VP16) was “facilitate efficient interactions of ER with target DNA”. The “inhibition of estradiol activated transcription, ERβ” value (ERβ) was “potent pan-antagonist of both forms of the human estrogen receptor”, the “reversal of the inverse agonist activity of ICI182,780” value ([1]; C3 promoter, co-addition with ICI182,780, FIG. 2C) was “completely reversed” and the “inhibition of the agonist activity manifested by tamoxifen or estradiol” value ([1]; ERwt, 10^−8M 17-β-estradiol or tamoxifen, FIG. 2A) was “inhibited”. For the same compound, the “agonist / inverse agonist activity on the C3 promoter” value ([1]; ERwt, compound alone, FIG. 1A/2A) was “do not demonstrate any agonist or antagonist activity”, the “inhibition of estradiol activated transcription, ERα” value (ERα) was “potent pan-antagonist of both forms of the human estrogen receptor” and the “antiestrogen activity on C3-Luc transcription” value (human ER) was “Functions as an Antiestrogen”.
With `C[C@]12CC[C@@H]3c4ccc(O)cc4C[C@@H](CCCCCCCCC[S+]([O-])CCCC(F)(F)C(F)(F)F)[C@H]3[C@@H]1CC[C@@H]2O` (stereo partly drawn) [ICI182,780, reference compound] the “agonist activity on ER-TAF1” value (ER-TAF1) was “functionally inactive” and the “interaction of ER with target DNA” value (ER-VP16) was “facilitate efficient interactions of ER with target DNA”.
For `C[C@]12CC[C@@H]3c4ccc(O)cc4CC[C@H]3[C@@H]1CC[C@@H]2O` [estradiol, 17β-estradiol, reference compound], the “bone mineral density, lumbar spine” value [2] was “BMD was maintained”.
With `O=C(c1ccc(OCCN2CCCCC2)cc1)c1c(-c2ccc(O)cc2)sc2cc(O)ccc12` [raloxifene, reference compound] the “inhibition of estradiol activated transcription, ERβ” value (ERβ) was “neither raloxifene nor idoxifene manifest potent antagonist activity”.
In the case of `CC/C(=C(\c1ccccc1)c1ccc(OCCN(C)C)cc1)c1ccccc1` [tamoxifen, reference compound], the “lowest dose with uterotrophic activity” value [3] is reported as 0.1 µmol/kg/day and the tumor growth (MCF-7/LCC2) is reported as “equally inhibit growth of this tumor”.
